This is an account of results in article PMC11768359, “2-Aminothiophene Derivatives—New Drug Candidates Against Leishmaniasis: Drug Design, Synthesis, Pharmacomodulation, and Antileishmanial Activity” (Pharmaceuticals, 2025).

Values joined by “and” are separate entries in the source; they are usually repeats but may differ in a detail not shown here. Equal values may be shown once. Read-outs that look alike come from different tables or passages of the source.

The subject of series [1] is RAW 264.7 macrophages. The series is described as follows: Cytotoxicity in macrophages (MTT). The format is cell-based. Conditions: 48 h. As for the experimental part: (§1) The in vitro tests utilized Leishmania amazonensis parasites (IFLA/BR/67/PH8). These leishmania cell lines were obtained from Oswaldo Cruz Foundation (FIOCRUZ)/Brazil. The promastigote forms were cultivated in Schneider’s insect medium at 26 °C in a biological oxygen demand (BOD) incubator. Schneider’s insect medium was supplemented with 20% fetal bovine serum (FBS) and 1% penicillin (100 U/mL) and streptomycin (µg/mL) (complete Schneider). Next, we differentiated them from promastigote forms by changing the conditions to Schneider’s insect medium supplemented with 5% FBS, pH 4.6, and a temperature of 32 °C to obtain axenic amastigote forms of L. amazonensis. Meanwhile, RAW 264.7 macrophages were cultured in […] cell culture flasks using DMEM medium supplemented with 10% FBS, 1% penicillin 100 U/mL, and 100 μg/mL streptomycin (complete DMEM) and incubated at 37 °C and 5% CO2.
(§2) First, 100 μL DMEM medium complete with 1 × 10^6 macrophages (RAW 264.7) was added to each well of a 96-well plate. RAW 264.7 macrophages were obtain from ATCC: code TIB-71^TM. The plate was placed in an incubator (37 °C, 5% CO2) (Sanyo, model COM-15A, Sanyo Electric Co., Osaka, Japan) for 4 h to promote cell adhesion. After this period, two washes were conducted with previously heated DMEM medium (37 °C) to remove non-adhered cells. 2-amino-thiophene and 2-amino-selenophene derivatives were added to wells at serial concentrations of 400 to 25 µM and then incubated for 48 h. Next, 10 μL of MTT at a […] of 5 mg/mL were added to each well and incubated for 4 h. The plate was then shaken for 30 min and read at the test and reference wavelengths of 550 and 620 nm, respectively, in a plate reader. DMEM medium supplemented with 0.5% DMSO was used as a negative control and considered as 100% macrophage viability. The selectivity index for each treatment was calculated as the ratio between the concentration of cytotoxicity of RAW 264.7 macrophages (CC50) and the 50% inhibitory concentration (IC50) or effective concentration (EC50), as measured for the different evolutionary forms of L. amazonensis.

Series [2] has as its system promastigotes of L. amazonensis. As to the kind of experiment: Growth inhibition of promastigote forms of L. amazonensis (MTT). To be noted: 72 h, 26 °C. In kind it is cell-based, Leishmania amazonensis. As for the experimental part: as §1
(§3) Parasite growth inhibition was evaluated using the methodology described by Rodrigues et al. (2015). Cultures of logarithmically growing promastigote and axenic amastigote forms (1 × 10^6 parasites/mL) were incubated in 96-well plates containing 100 µL of supplemented Schneider’s medium in triplicate. Serial concentrations of 2-amino-thiophene and 2-amino-selenophene derivatives (10.00–0.156 μM) and the reference drugs meglumine antimoniate (500–40,000 μg/mL), amphoterecinB (0.1–2 μM), and pentamidine (3.12–100 µM) were added. BNP was used as a negative control. The cultures were incubated in a biological oxygen demand oven (model Eletrolab EL202, São Paulo, Brazil) at 26 °C for promastigotes and 32 °C for axenic amastigotes for 72 h. Then, 10 μL of MTT (5 mg/mL) was added to each well to colorimetrically evaluate growth inhibition. The plate was subsequently incubated for a further 4 h, followed by adding 50 μL of 10% sodium dodecyl sulfate solution for […] before the optical density of the culture was read on a microplate spectrophotometer reader. The reading was taken at the test and reference wavelengths of 540 and 620 nm using a microplate spectrophotometer. The negative control consisted of 0.2% […] with BNP, considered to be 100% viable.

For series [3] the test system is unchanged. To be noted: cited from earlier work.
Series [4] has as its system RAW 264.7 macrophages. Conditions: previously published; cited from earlier work.
For series [5], the system named is axenic amastigotes of L. amazonensis. Conditions: cited from earlier work; for EC50: read-out: EC50 against amastigotes.
Series [6] in a line: Cytotoxicity in macrophages (MTT). The format is cell-based. Conditions: mouse, RAW 264.7 macrophages. As for the experimental part: as §1, §2
Series [7] relates to axenic amastigotes of L. amazonensis. The series is described as follows: Growth inhibition of axenic amastigote forms of L. amazonensis (MTT). In kind it is cell-based, Leishmania amazonensis. Conditions: Leishmania amazonensis, 72 h, 32 °C. Here is the method:
as §1, §3

For the next series, the system named is L. amazonensis. Conditions: Swiss mice, oral, 50 and 200 mg/kg, 7 weeks; versus meglumine antimoniate i.p. 100 mg/kg; cited from earlier work.
Setting [8] is: L. amazonensis promastigotes, previously published, read-out: IC50 Promastigotes.
The mark [9] stands for this setting: L. amazonensis axenic amastigotes, previously published, read-out: IC50 Amastigotes.
[10] abbreviates: L. amazonensis amastigotes, previously published, read-out: IC50 Amastigotes.

Broadly, the IC50 is the midpoint of a concentration-inhibition curve. For the compound `C[C@@H]1[C@H](O)[C@@H](C)/C=C/C=C/C=C/C=C/C=C/C=C/C=C/[C@H](O[C@@H]2O[C@H](C)[C@@H](O)[C@H](N)[C@@H]2O)C[C@@H]2O[C@](O)(C[C@@H](O)C[C@@H](O)[C@H](O)CC[C@@H](O)C[C@@H](O)CC(=O)O[C@H]1C)C[C@H](O)[C@H]2C(=O)O` [Amphotericin B, reference compound], the CC50 in the series on RAW 264.7 macrophages [1] was 0.18 µM and 0.3 µM; with RAW 264.7 macrophages [1] (listed as Anfotericina B) it was 0.38 µM. For the same compound, the IC50 is 0.17 µM and 0.3 µM in series [2]; 0.36 µM in series [2] (listed as Anfotericina B).

Regarding `N#Cc1c(N)sc2c1CCCCC2` [Compound 7CN], the IC50 is 3.2 µM and 3.14 µM in series [3] (setting [8]); 2.7 µM and 2.79 µM in series [5] (setting [9]). Moreover, in the series with RAW 264.7 macrophages [4], the CC50 was 99.5 µM.

As for `N#Cc1c(/N=C/c2c[nH]c3ccc(Br)cc23)sc2c1CCCCCC2` [Compound 8CN83], the IC50 in series [3] (setting [8]) was 4.7 µM and 4.75 µM; in series [5] (setting [9]) it was 3.8 µM. For the same compound, the CC50 in the series with RAW 264.7 macrophages [4] was more than 100 µM.

With `N#Cc1c(N)sc2c1CCCCCC2` [Compound 8CN], the IC50 in series [3] (setting [8]) is 1.2 µM. Besides, the CC50 in the series with RAW 264.7 macrophages [4] is 43.9 µM.

For the compound `CC(C)(C)OC(=O)N1CCc2c(sc(N)c2C(N)=O)C1` [Compound 19], the IC50 in series [3] (L. amazonensis, read-out: IC50 against promastigotes) was 2.1 µM and 2.16 µM; in series [7], more than 10 µM; in series [2] (Leishmania amazonensis), 9.35 µM; in series [5] (L. amazonensis, read-out: IC50 against axenic amastigotes) it was 0.9 µM. Moreover, in series [6], the CC50 at 48 h amounted to 310 µM.

The compound `CC(C)(C)OC(=O)c1c(N)sc2c1CCN(C(=O)OC(C)(C)C)C2` [Compound 22] returned a CC50 at 48 h in series [6] of 195 µM. Moreover, the IC50 in series [7] is 8.35 µM; in series [2] (Leishmania amazonensis), 6.52 µM.

In the case of `CC1CCc2c(sc(/N=C/c3c[nH]c4ccc(Br)cc34)c2C#N)C1` (stereo not shown) [Me-6CN83], the IC50 was 9.9 µM in series [3] (setting [8]); 8.7 µM and 8.72 µM in series [5] (setting [9]). Moreover, in the series with RAW 264.7 macrophages [4], the CC50 is more than 100 µM.

What is called EC50 is the concentration at which the effect is half-maximal. For `N#Cc1c(/N=C/c2c[nH]c3ccc(Br)cc23)sc2c1CCCC2` [SB-83], the IC50 in series [3] (setting [8]) is 3.3 µM and 3.37 µM; in series [5] (setting [10]) it was 18.5 µM. For the same compound, the EC50 in series [5] (L. amazonensis amastigotes) was 18.5 µM. Moreover, the “paw lesion size and parasite load in the reservoirs” value in the series on L. amazonensis is “more effective than meglumine antimoniate”.

Take `N#Cc1c(/N=C/c2c[nH]c3ccc(Br)cc23)sc2c1CCCCC2` [SB-200]: the IC50 in series [3] (setting [8]) was 3.6 µM and 3.65 µM; in series [5] (setting [10]) it was 20 µM and 20.1 µM. For the same compound, the CC50 in the series with RAW 264.7 macrophages [4] is 32 µM. Moreover, the EC50 in series [5] (L. amazonensis amastigotes) was 20.1 µM.
